From patent EP4725956A1, “MODIFIED POLYPEPTIDE AND USE THEREOF IN FIELD OF ANALGESIA” (Nanjing Anji Biotechnology Co., Ltd., priority 2023, dated 2024)
Positions of bridges follow the written chain, without caps; N, C: chain ends. Non-standard residues stand in square brackets, D forms with d. Residues, ends and D or L forms follow the SMILES beside them. Bip = N[C@@H](Cc1ccc(-c2ccccc2)cc1)C(=O)O; Hyp = O=C(O)[C@@H]1C[C@@H](O)CN1; Nle = CCCC[C@H](N)C(=O)O; Orn = NCCC[C@H](N)C(=O)O; Aib = CC(C)(N)C(=O)O

Assays:
[1] = molecular target: α7 nAChR (Homo sapiens, UniProt P36544); assay: BLI (biolayer interferometry) affinity of peptides to α7 nAChR; assay type: binding; set-up: inferred from the 'similar' procedure on NTA sensors; conditions: NTA sensor, α7 nAChR 20 µg/mL, peptide 1.372-1000 nM in PBS
Method in brief: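 Target protein immobilised on NTA biosensors from PBS at 5 µg/mL (α9) or 20 µg/mL (α7). Peptides run in PBS as threefold series from 1000 nM to 1.372 nM with a PBS blank, 5-minute association and 5-minute dissociation; KD from fitted ka and kd.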

[2] = tested on: mouse diabetic neuropathic pain model; assay: Mouse diabetic neuropathic pain model (Example 10); assay type: in vivo
Description: Except for the control group, the remaining male C57 mice (Hangzhou Ziyuan Experimental Animal Technology Co., Ltd.) were continuously fed a high-sugar, high-fat diet for approximately ten weeks. For the model group, mice were fasted overnight, and streptozotocin (STZ) (Sann Chemical Technology (Shanghai) Co., Ltd.) was dissolved in sodium citrate-citric acid buffer solution and intraperitoneally injected at a dose of 70 mg/kg. About two weeks after STZ injection, the mechanical pain threshold of mice was measured. Mice were placed on a perforated wire mesh for adaptation, and the plantar surface of the right hind paw was vertically stimulated with a blunt needle. Pain threshold data were collected using a biosignal acquisition system. Each mouse was measured three times, and the average value was calculated. Mice were then randomly assigned to groups based on their pain thresholds for drug administration.
Day 1 of dosing: Drug administration was performed according to Table 9. Mechanical pain thresholds of the plantar surface were measured at 0 h, 2 h, 4 h, 6 h, and 8 h after administration.

[3] = tested on: rat paclitaxel-induced chronic chemotherapy pain model; assay: Rat paclitaxel chemotherapy pain model, different doses (Example 6); assay type: in vivo
Description: Male SPF (Specific Pathogen Free) SD rats weighing 180-200 g (Shanghai Institute of Planned Parenthood Research, Experimental Animal Department) were purchased and allowed to acclimate for approximately one week. On the day of model induction, rats were weighed, and baseline mechanical pain thresholds were measured. Animals with large differences in body weight or pain threshold were excluded, and the remaining rats were subjected to the experimental protocol. Paclitaxel powder was dissolved in olive oil to 1 mg/mL. Each rat received an intraperitoneal injection of 2 mg/kg per dose. Four injections were administered on days 1, 3, 5, and 7. Rats in the negative control or vehicle control group received injections of the solvent used to dissolve paclitaxel. […] Starting from day 15 after model induction, drugs were administered daily for consecutive days. On days 1, 4, 7, 12, and 14 of treatment, mechanical pain thresholds of the right hind paw at the corresponding time were measured at 2 h, 4 h, 6 h, and 8 h after dosing using a blunt probe. […]. […] Table 5 Dosing Scheme for Screening Analgesic Activity of Selected Modified Peptides at Different Doses in the Paclitaxel Chemotherapy Pain Model

[4] = tested on: rat paclitaxel-induced chronic chemotherapy pain model; assay: Rat paclitaxel chemotherapy pain model, same dose (Example 5); assay type: in vivo
Description: Male SPF (Specific Pathogen Free) SD rats weighing 180-200 g (Shanghai Institute of Planned Parenthood Research, Experimental Animal Department) were used. On the day of model induction, rats were weighed, and baseline mechanical pain thresholds were measured. Animals with large differences in body weight or pain threshold were excluded, and the remaining rats were subjected to the experimental protocol. Paclitaxel powder was dissolved in olive oil to 1 mg/mL. Each rat received an intraperitoneal injection of 2 mg/kg per dose. Four injections were administered on days 1, 3, 5, and 7. Rats in the negative control or vehicle control group received injections of the solvent used to dissolve paclitaxel. […] The blank group in Table 4 represents rats without pain modeling, and the model group represents rats with pain modeling but no drug treatment. On days 1, 3, 5, and 12, drugs were administered at fixed times. On days 1, 3, and 5, mechanical pain thresholds of the right hind paw at the corresponding time were measured at 1 h, 2.5 h, 4 h, and 5.5 h after dosing using a blunt probe. On day 12, mechanical pain thresholds were measured at 4 h and 7 h after dosing. […] AJ003-36 and AJ003-40 were thus identified as candidate molecules for further study. Paclitaxel is a widely used small-molecule chemotherapy drug that, while effective against tumors, can induce neuropathic pain in many cancer patients due to neurotoxicity. The chronic chemotherapy pain model induced in male SD rats via multiple low-dose intraperitoneal injections of paclitaxel simulates clinical chemotherapy-induced neuropathic pain. Using this model, the analgesic effects of five modified peptides, the parent peptide AJ003, and the positive control pregabalin were evaluated. […] Table 4 Dosing Scheme for Screening Analgesic Activity of Selected Modified Peptides at the Same Dose in the Paclitaxel Chemotherapy Pain Model

CCCC[C@H](NC(=O)[C@@H](NC(=O)[C@H]1CSSC[C@H](NC(=O)[C@H](CO)NC(=O)CN)C(=O)N[C@@H](CO)C(=O)N[C@H]([C@H](C)O)C(=O)N2C[C@H](O)C[C@H]2C(=O)N2C[C@H](O)C[C@H]2C(=O)NC(C)(C)C(=O)N1)C(C)C)C(=O)N[C@@H](Cc1ccc(-c2ccccc2)cc1)C(=O)N[C@@H](CCCN)C(N)=O [AJ003-36, GSCS-(D-Thr)-Hyp-Hyp-Aib-(D-Cys)-V-Nle-Bip-Orn-NH2 (3,9 disulfide bond)] (H-GSCS[dT][Hyp][Hyp][Aib][dC]V[Nle][Bip][Orn]-NH2; disulfide 3-9)
Kd [1]: 40.8 nM | analgesic activity compared with the model group (mechanical pain threshold) ([2]; Day 1 of dosing, 2 h and 4 h, 1 mg/kg s.c. (low dose)): significant analgesic activity | analgesic activity compared with the model group (mechanical pain threshold) ([2]; Day 1 of dosing, 2 h and 4 h, 2 mg/kg s.c. (AJ003; AJ003-36 medium dose)): significant analgesic activity | analgesic activity compared with the model group (mechanical pain threshold) ([2]; Day 1 of dosing, 2 h and 4 h, 3 mg/kg s.c. (high dose)): significant analgesic activity | analgesic activity compared with the model group (mechanical pain threshold) ([2]; Day 1 of dosing, 6 h and 8 h, 1 mg/kg s.c. (low dose)): significant analgesic activity | analgesic activity compared with the model group (mechanical pain threshold) ([2]; Day 1 of dosing, 6 h and 8 h, 2 mg/kg s.c. (AJ003; AJ003-36 medium dose)): significant analgesic activity | analgesic activity compared with the model group (mechanical pain threshold) ([2]; Day 1 of dosing, 6 h and 8 h, 3 mg/kg s.c. (high dose)): significant analgesic activity | analgesic activity compared with the model group (mechanical pain threshold) ([2]; Day 4 of dosing, 2 h and 4 h, 1 mg/kg s.c. (low dose)): significant analgesic activity | analgesic activity compared with the model group (mechanical pain threshold) ([2]; Day 4 of dosing, 2 h and 4 h, 2 mg/kg s.c. (AJ003; AJ003-36 medium dose)): significant analgesic activity | analgesic activity compared with the model group (mechanical pain threshold) ([2]; Day 4 of dosing, 2 h and 4 h, 3 mg/kg s.c. (high dose)): significant analgesic activity | analgesic activity compared with the model group (mechanical pain threshold) ([2]; Day 4 of dosing, 6 h and 8 h, 1 mg/kg s.c. (low dose)): significant analgesic activity | analgesic activity compared with the model group (mechanical pain threshold) ([2]; Day 4 of dosing, 6 h and 8 h, 2 mg/kg s.c. (AJ003; AJ003-36 medium dose)): significant analgesic activity | analgesic activity compared with the model group (mechanical pain threshold) ([2]; Day 4 of dosing, 6 h and 8 h, 3 mg/kg s.c. (high dose)): significant analgesic activity | analgesic activity compared with the model group (mechanical pain threshold) ([2]; Day 8 of dosing, 2 h and 4 h, 1 mg/kg s.c. (low dose)): significant analgesic activity | analgesic activity compared with the model group (mechanical pain threshold) ([2]; Day 8 of dosing, 2 h and 4 h, 2 mg/kg s.c. (AJ003; AJ003-36 medium dose)): significant analgesic activity | analgesic activity compared with the model group (mechanical pain threshold) ([2]; Day 8 of dosing, 2 h and 4 h, 3 mg/kg s.c. (high dose)): significant analgesic activity | analgesic activity compared with the model group (mechanical pain threshold) ([2]; Day 8 of dosing, 6 h and 8 h, 1 mg/kg s.c. (low dose)): no significant difference | analgesic activity compared with the model group (mechanical pain threshold) ([2]; Day 8 of dosing, 6 h and 8 h, 2 mg/kg s.c. (AJ003; AJ003-36 medium dose)): significant analgesic activity | analgesic activity compared with the model group (mechanical pain threshold) ([2]; Day 8 of dosing, 6 h and 8 h, 3 mg/kg s.c. (high dose)): significant analgesic activity | analgesic activity compared with the model group (mechanical pain threshold) ([2]; Day 14 of dosing, 2 h and 4 h, 1 mg/kg s.c. (low dose)): significant analgesic activity | analgesic activity compared with the model group (mechanical pain threshold) ([2]; Day 14 of dosing, 2 h and 4 h, 2 mg/kg s.c. (AJ003; AJ003-36 medium dose)): significant analgesic activity | analgesic activity compared with the model group (mechanical pain threshold) ([2]; Day 14 of dosing, 2 h and 4 h, 3 mg/kg s.c. (high dose)): significant analgesic activity | analgesic activity compared with the model group (mechanical pain threshold) ([2]; Day 14 of dosing, 6 h and 8 h, 1 mg/kg s.c. (low dose)): significant analgesic activity | analgesic activity compared with the model group (mechanical pain threshold) ([2]; Day 14 of dosing, 6 h and 8 h, 2 mg/kg s.c. (AJ003; AJ003-36 medium dose)): significant analgesic activity | analgesic activity compared with the model group (mechanical pain threshold) ([2]; Day 14 of dosing, 6 h and 8 h, 3 mg/kg s.c. (high dose)): significant analgesic activity | analgesic activity compared with pregabalin ([2]; high dose 3 mg/kg s.c. vs pregabalin 60 mg/kg oral, over four administrations): slightly superior analgesic activity | analgesic activity compared with the positive control pregabalin ([3]; high dose 1.5 mg/kg s.c. vs pregabalin 30 mg/kg oral gavage): slightly superior to the positive control pregabalin | analgesic effect compared with the model group (mechanical pain threshold) ([3]; high dose 1.5 mg/kg s.c., 8 h after dosing): remained significant | analgesic activity compared with the parent peptide AJ003 ([3]; low dose 0.5 mg/kg s.c. vs AJ003 1 mg/kg s.c.): comparable to that of AJ003 at 1 mg/kg | ranking among the five candidate modified peptides ([4]; 1 mg/kg s.c.): top three analgesic candidates | analgesic activity (mechanical pain threshold) ([4]; 1 mg/kg s.c., day 12, 7 h after dosing): prolonged analgesic activity lasting up to 7 h | analgesic efficacy compared with the positive control pregabalin ([4]; peptide 1 mg/kg s.c. vs pregabalin 30 mg/kg oral gavage, overall): comparable in analgesic efficacy to pregabalin
